According to US20060106099A1, “Novel inhibitors of ubiquitin isopeptidases” (priority 2002, published 2006):

How the values were obtained:
ubiquitin isopeptidases [1] = test: Reversibility of isopeptidase inhibition in cell lysates, z-LRGG-AMC, dialysis; assay type: biochemical; details: 100 μM
Procedure: FIG. 5 Reversibility of isopeptidase inhibition by Δ12-PGJ2. Cell lysates (0.5 mg/mL) were treated with DMSO vehicle or 100 μM .12-PGJ2 for 1 hour,25° C. The treated lysates were divided into two aliquots. One aliquot was immediately analyzed for isopeptidase activity by incubating with z-LRGG-AMC as previously described (Pre-Dialysis). The second aliquot was dialyzed by washing with 3 volumes of assay buffer on a centricon YM-30 column, followed by analysis for isopeptidase activity by incubating with z-LRGG-AMC (Post-Dialysis).
Δ-12-PGJ2 irreversibility was determined. Cell lysates were incubated with vehicle or 100 μM test compound and isopeptidase activity was measured fluorimetrically. 500 μl portion of each sample were dialyzed through a Centricon filter with a molecular weight cut-off of […]. After washing with 3 volumes of assay buffer, isopeptidase activity was measured in the […].

ubiquitin isopeptidases [2] = test: In vitro isopeptidase activity in HCT 116 lysates, Ub-PEST; assay type: biochemical, human; details: HCT 116 lysates, 45 min
Procedure: (§1) Isopeptidase Assay. It was hypothesized that the punaglandins would inhibit ubiquitin-isopeptidase activity of the proteasome pathway as does the prostaglandin, Δ^12-PGJ2 (1), but with greater potency because of the chlorinated C-10. To validate this theory, cellular isopeptidase enzymatic activity was measured in vitro after treatment with individual punaglandins, PNG 2 (6), PNG 3 (7), and Z-PNG 4 (9) and in vivo after individual treatment with PNG 4 (8) and PNG 6 (10). This activity was determined utilizing the simple isopeptidase substrate, ubiquitin-PEST (Ub-PEST), a full/length ubiquitin (Ub) molecule fused with an 18-amino acid C-terminal peptide extension that most isopeptidases use as a substrate. The polypeptide extension contains regions rich in Pro (P), Glu (E), Ser (S), and Thr (T) residues called PEST motifs that are responsible for rapid degradation of these and other unstable proteins. Ub isopeptidases specifically cleave this peptide extension, yielding free, full-length Ub. Both the fused Ub-PEST (10.5 kDa) and the cleaved, free Ub (8.5 kDa) can be observed via immunochemical detection.
In Vitro Isopeptidase Activity. PNG 2 (6), PNG 3 (7), and Z-PNG 4 (9) were initially analyzed for isopeptidase activity in vitro in HCT 116 lysates. Cells were lysed with isopeptidase activity buffer and protein concentration adjusted to 0.3 mg/mL per sample. Each sample was subsequently incubated with 2 μM, 6 μM, 20 μM, 60 μM, or 200 μM of PNG 2 (6), PNG 3 (7), Z-PNG 4 (9), Δ^12-PGJ2 (1), and PGA1 (2) in addition to 50 μg/ml of Ub-PEST. Negative control cells were treated with vehicle (0.5% DMSO) and equivalent Ub-PEST. […] The amount of fused Ub-PEST and free Ub product was determined by SDS-PAGE fractionation.

[3] = in vivo; cited from earlier work
[4] = cited from earlier work
ubiquitin isopeptidases [5] = test: In vivo isopeptidase activity after treatment of RKO cells, Ub-PEST; assay type: cell-based, human; details: 6 h
Procedure: as §1
In vivo Isopeptidase Activity. To investigate whether punaglandins can inhibit isopeptidase activity in vivo, isopeptidase activity was analyzed after punaglandin treatment of RKO cells. PNG 4 (8) and PNG 6 (10) were selected for in vivo investigation because they differ only in enone functionality, where (8) is a dienone and (10) an enone. RKO cells were incubated with 1 μM, 4 μM, or 7 μM of PNG 4 (8) and PNG 6 (10). […] As a positive control, cells were treated with a known isopeptidase inhibitor, shikoccin (SK). After 6 h drug treatment, cells were lysed and protein concentration adjusted to 0.3 mg/mL per sample. Each sample was subsequently incubated with 50 μg/mL of Ub-PEST. The reaction was terminated after 20 min and the respective amounts of Ub-PEST (10 kDa) and free Ub product (8.5 kDa) were determined by SDS-PAGE fractionation.

[6] = tested on: cell lines with Wild type p53; details: cited from earlier work
HCT 116 −/− cells = test: MTT cell viability assay, HCT 116 p53 −/− cells; details: read-out: Cytotoxic Potency (EC50) HCT −/−; 48 h, MTT
Procedure: (§2) Cell viability was measured with MTT reagent as described in materials and methods.
(§3) Cell viability was detected by the MTT assay. Briefly, 1×10^5 cells were incubated per well of a sterile, 96-well assay plate with 0-60 μM of test compounds for 48 hours. MTT reagent was added to each well, final concentration of 0.5 mg/mL, and incubated for an additional 3 hours. The media was aspirated and remaining MTT reagent from each well and added 100 μL of HCl:isopropanol (1:24). The absorbance of each sample was measured at 405 nm.

[7] = tested on: cell lines with mutant/deleted p53; details: mean of 41-42 cell lines with mutant/deleted p53; read-out: Mutant p53 Mean LC50; cited from earlier work

Procedure for HCT 116 +/+ cells: as §2, §3

Row | SMILES | isopeptidase inhibition in treated cell lysates, pre-dialysis (ubiquitin isopeptidases [1]; 1 hour, 25° C.) | reversibility of isopeptidase inhibition, post-dialysis (ubiquitin isopeptidases [1]; dialysis with 3 volumes of assay buffer) | concentration at which inhibition of Ub-PEST degradation is initially observed (ubiquitin isopeptidases [2]) | concentration of complete (total) inhibition of Ub-PEST degradation (ubiquitin isopeptidases [2]) | cross-resistance with cisplatin and adriamycin [3] | EC50 (HCT 116 +/+ cells) | t1/2 of metabolism to an inactive compound in serum [4] | effect on Ub-PEST degradation, control substances (ubiquitin isopeptidases [5]) | p53 dependence in NCI 60 cell line cancer screening data ([6]; analysis according to O'Connor et al., 1997) | LC50 ([6]; mean of 18 cell lines with wild type p53) | EC50 (HCT 116 −/− cells) | CC50 [7] | EC50 (RKO cells)
1 | CCCCC[C@H](O)C/C=C1/C(=O)C=C[C@@H]1C/C=C\CCCC(=O)O [Δ12-PGJ2, Δ12-prostaglandin J2] | inhibited isopeptidase activity in treated cell lysates | could not be reversed by dialysis | 60 µM | 200 µM | little cross-resistance with cisplatin and adriamycin | 3.6 ± 0.3 µM | < 5 min | – | – | – | – | – | –
2 | C=C1C(=O)C2=CC1CCC(=O)C1(C)CCC(OC(C)=O)C(C)(C)C1CC2O (stereo not shown) [NSC-302979, shikoccin] | – | – | – | – | – | – | – | expected inhibition of Ub-PEST degradation | act independently of p53 | 54 µM | 3.2 ± 0.2 µM | 66 µM | 1.8 ± 0.1 µM
